PMC8343220, “The selectivity of α‐adrenoceptor agonists for the human α1A, α1B, and α1D‐adrenoceptors” (Pharmacology Research & Perspectives, 2021)
Read-outs that look alike come from different tables or passages of the source.

Tests used:
[1] = target: T1, human α1D‐adrenoceptor (full length) (Homo sapiens, UniProt P25100); assay: ^3H‐cAMP accumulation in the presence of 10 μM forskolin, CHO‐α1D cells; assay type: cell-based; conditions: CHO‐α1D cells; for cAMP (in presence of forskolin) Fold increase: fold increase of the forskolin response
T1 construct: human α1D‐adrenoceptor (full length) were used; expressed in transfected cells; host or cells: CHO-K1
T1 sequence (P25100 1-572): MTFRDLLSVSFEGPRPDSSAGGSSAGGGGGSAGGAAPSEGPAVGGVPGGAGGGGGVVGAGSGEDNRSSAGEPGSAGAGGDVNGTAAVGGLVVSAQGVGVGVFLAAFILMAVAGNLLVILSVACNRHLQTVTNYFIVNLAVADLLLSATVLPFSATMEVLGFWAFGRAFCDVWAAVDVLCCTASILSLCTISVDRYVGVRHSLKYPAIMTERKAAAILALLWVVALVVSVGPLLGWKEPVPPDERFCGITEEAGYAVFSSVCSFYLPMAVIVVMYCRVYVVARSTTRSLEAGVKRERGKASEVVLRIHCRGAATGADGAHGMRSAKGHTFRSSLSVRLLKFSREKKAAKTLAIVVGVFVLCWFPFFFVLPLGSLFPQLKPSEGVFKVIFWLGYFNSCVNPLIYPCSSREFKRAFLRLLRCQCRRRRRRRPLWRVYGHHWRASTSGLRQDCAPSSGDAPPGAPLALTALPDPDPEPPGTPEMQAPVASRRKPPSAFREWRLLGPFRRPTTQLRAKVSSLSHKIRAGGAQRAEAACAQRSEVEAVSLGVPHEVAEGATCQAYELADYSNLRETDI

human α1A‐adrenoceptor [2] = target: T2, human α1A‐adrenoceptor (Homo sapiens, UniProt P35348); assay: ^3H‐prazosin whole‐cell radioligand binding, CHO‐α1A cells; conditions: for Kd: CHO‐α1A cells, given as log KD (negative), mean ± SEM; for Affinity selectivity ratio α1A vs α1B: higher affinity for α1A than α1B; for Affinity selectivity ratio α1A vs α1D: higher affinity for α1A than α1D
T2 construct: expressed in transfected cells; host or cells: CHO-K1
T2 sequence (P35348 1-466): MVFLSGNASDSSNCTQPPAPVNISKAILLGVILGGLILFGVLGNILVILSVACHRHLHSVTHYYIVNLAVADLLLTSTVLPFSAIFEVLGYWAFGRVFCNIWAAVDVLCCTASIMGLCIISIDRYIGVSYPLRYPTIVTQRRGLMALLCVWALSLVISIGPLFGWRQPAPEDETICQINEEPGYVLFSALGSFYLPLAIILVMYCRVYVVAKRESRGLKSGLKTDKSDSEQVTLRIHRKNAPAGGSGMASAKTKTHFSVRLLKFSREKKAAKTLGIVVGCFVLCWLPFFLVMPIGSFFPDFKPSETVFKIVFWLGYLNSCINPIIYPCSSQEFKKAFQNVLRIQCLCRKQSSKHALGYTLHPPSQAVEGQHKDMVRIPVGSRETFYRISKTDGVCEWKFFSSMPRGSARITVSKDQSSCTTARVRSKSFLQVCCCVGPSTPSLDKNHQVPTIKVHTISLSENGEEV

[3] = target: T1, human α1D‐adrenoceptor (full length); assay: ^3H‐prazosin whole‐cell radioligand binding, CHO‐α1D cells
human α1A‐adrenoceptor [4] = target: T2, human α1A‐adrenoceptor; assay: ERK1/2‐phosphorylation (Surefire Alphascreen), CHO‐α1A cells; assay type: cell-based; conditions: CHO‐α1A cells, ^a bi‐phasic: initial stimulatory part; for EC50: 2–4 min, ^b also active in parent CHO cells, read-out: ERK1/2‐phosphorylation Log EC50 (converted); for ERK1/2‐phosphorylation % PDBu: % of 10 µM PDBu
[5] = target: T1, human α1D‐adrenoceptor (full length); assay: ^3H‐cAMP accumulation, CHO‐α1D cells; assay type: cell-based; conditions: cAMP accumulation without forskolin
human α1B‐adrenoceptor [6] = target: T3, human α1B‐adrenoceptor (Homo sapiens, UniProt P35368); assay: Intracellular free calcium mobilization, CHO‐α1B cells; assay type: cell-based; conditions: CHO‐α1B cells; for EC50: given as log EC50 (negative numbers), read-out: Intracellular calcium release Log EC50 (converted); for Log efficacy ratio KD /EC50: intrinsic efficacy ratio, KD from binding / EC50 calcium; for Intracellular calcium release % ionomycin: maximal response as % of 10 µM ionomycin response
T3 construct: expressed in transfected cells; host or cells: CHO-K1
T3 sequence (P35368 1-520): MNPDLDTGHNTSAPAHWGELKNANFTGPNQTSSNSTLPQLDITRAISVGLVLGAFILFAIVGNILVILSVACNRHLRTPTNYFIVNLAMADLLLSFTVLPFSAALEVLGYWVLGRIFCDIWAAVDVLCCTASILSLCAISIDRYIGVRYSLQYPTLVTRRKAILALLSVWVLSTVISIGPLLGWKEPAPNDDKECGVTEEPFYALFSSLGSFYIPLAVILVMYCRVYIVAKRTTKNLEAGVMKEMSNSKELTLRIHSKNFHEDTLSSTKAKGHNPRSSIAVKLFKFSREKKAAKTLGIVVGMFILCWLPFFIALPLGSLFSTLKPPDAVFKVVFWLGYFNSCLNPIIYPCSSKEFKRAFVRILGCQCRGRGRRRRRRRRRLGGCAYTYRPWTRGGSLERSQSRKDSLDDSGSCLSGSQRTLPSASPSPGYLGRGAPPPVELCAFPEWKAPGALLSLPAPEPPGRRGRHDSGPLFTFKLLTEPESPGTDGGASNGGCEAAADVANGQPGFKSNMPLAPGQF

[7] = target: T1, human α1D‐adrenoceptor (full length); assay: Intracellular free calcium mobilization, CHO‐α1D cells; assay type: cell-based; conditions: CHO‐α1D cells; for Log efficacy ratio KD /EC50: intrinsic efficacy ratio, binding KD / calcium EC50; for EC50: log values given negative, read-out: Intracellular calcium release Log EC50 (converted)
human α1B‐adrenoceptor [8] = target: T3, human α1B‐adrenoceptor; assay: ERK1/2‐phosphorylation (Surefire Alphascreen), CHO‐α1B cells; assay type: cell-based; conditions: CHO‐α1B cells, for bi‐phasic responses the initial stimulatory part; for EC50: read-out: ERK1/2‐phosphorylation Log EC50 (converted); for ERK1/2‐phosphorylation % PDBu: maximal response as % PDBu response
human α1B‐adrenoceptor [9] = target: T3, human α1B‐adrenoceptor; assay: ^3H‐prazosin whole‐cell radioligand binding, CHO‐α1B cells; conditions: CHO‐α1B cells
[10] = target: T1, human α1D‐adrenoceptor (full length); assay: ERK1/2‐phosphorylation (Surefire Alphascreen), CHO‐α1D cells; assay type: cell-based; conditions: for EC50: log values given negative, read-out: ERK1/2‐phosphorylation Log EC50 (converted)
[11] = test system: parental CHO cell line without any transfected receptors; assay: ERK1/2‐phosphorylation, parent CHO cells without transfected receptors; assay type: cell-based, Chinese hamster; conditions: Cricetulus griseus, CHO; read-out: ERK1/2-phosphorylation % PDBu at 100μM
human α1A‐adrenoceptor [12] = target: T2, human α1A‐adrenoceptor; assay: Intracellular free calcium mobilization, CHO‐α1A cells; assay type: cell-based; conditions: CHO‐α1A cells; for Log efficacy ratio KD /EC50: binding KD and calcium EC50; for EC50: given as log EC50 (negative), read-out: Intracellular calcium release Log EC50 (converted); for Intracellular calcium release % ionomycin: maximal response as % of 10 µM ionomycin
human α1A‐adrenoceptor [13] = target: T2, human α1A‐adrenoceptor; assay: ^3H‐cAMP accumulation in the presence of 10 μM forskolin, CHO‐α1A cells; assay type: cell-based; conditions: CHO‐α1A cells; response at 100 μM ligand, no EC50 obtained
[14] = test system: parental CHO cell line without any transfected receptors; assay: Forskolin‐stimulated cAMP accumulation, parent CHO cells without transfected receptors; assay type: cell-based, Chinese hamster; conditions: CHO cells without transfected receptors; in presence of forskolin
human α1A‐adrenoceptor [15] = target: T2, human α1A‐adrenoceptor; assay: ^3H‐cAMP accumulation, CHO‐α1A cells; assay type: cell-based; conditions: CHO‐α1A cells
human α1B‐adrenoceptor [16] = target: T3, human α1B‐adrenoceptor; assay: ^3H‐cAMP accumulation, CHO‐α1B cells; assay type: cell-based; conditions: CHO‐α1B cells; % forskolin maximum response
[17] = in presence of forskolin, log values given negative
[18] = CHO‐α1D cells, given as log KD (negative), mean ± SEM, 'early plateau' = specific binding not fully inhibited
[19] = CHO‐α1D cells, maximal response as % of PDBu

Row | SMILES | cAMP (in presence of forskolin) Fold increase [1] | Affinity selectivity ratio α1A vs α1B (human α1A‐adrenoceptor [2]) [fold] | Affinity selectivity ratio α1A vs α1D (human α1A‐adrenoceptor [2]) [fold] | Kd [3, 18] [µM] | EC50 (human α1A‐adrenoceptor [4]) [µM] | ERK1/2‐phosphorylation % PDBu (human α1A‐adrenoceptor [4]) [%] | cAMP Log EC50 [5] | EC50 (human α1B‐adrenoceptor [6]) [µM] | Log efficacy ratio KD /EC50 (human α1B‐adrenoceptor [6]) | Intracellular calcium release % ionomycin (human α1B‐adrenoceptor [6]) [%] | Log efficacy ratio KD /EC50 [7] | EC50 [7] [µM] | EC50 (human α1B‐adrenoceptor [8]) [µM] | ERK1/2‐phosphorylation % PDBu (human α1B‐adrenoceptor [8]) [%] | EC50 ([10]; CHO‐α1D cells) [µM] | ERK1/2‐phosphorylation % PDBu [10, 19] [%] | Emax at 100 µM [11] [%] | Log efficacy ratio KD /EC50 (human α1A‐adrenoceptor [12]) | EC50 (human α1A‐adrenoceptor [12]) [µM] | Intracellular calcium release % ionomycin (human α1A‐adrenoceptor [12]) [%] | further results
1 | COc1nc(C)nc(Cl)c1N=C1NCCN1 [Moxonidine] | No response | 11.7 | 3.8 | 110 | 0.141 | 78.0 ± 7.2 | No response | 0.324 | 3.02 | 57.9 ± 2.1 | 1.25 | 6.17 | 0.912 | 102.0 ± 6.5 | 14.8 | 16.4 ± 1.6 | 3.1 ± 1.9 | 1.97 | 0.309 | 59.3 ± 4.5 | cAMP (in presence of forskolin) Log EC50 [1, 17]: No response; Kd (human α1A‐adrenoceptor [2]): 28.8 µM; Kd ([3]; 3H‐prazosin binding Log KD, CHO‐α1D cells, whole‐cell binding (from Table 1), log values given negative): 110 µM; Affinity selectivity ratio α1B vs α1D ([3]; higher affinity for α1D than α1B): 3.1 fold; Intracellular calcium release % ionomycin ([7]; maximal response as % of 10 µM ionomycin): 16.6 ± 2.9%; Kd (human α1B‐adrenoceptor [9]; given as log KD (negative), mean ± SEM): 339 µM; Kd (human α1B‐adrenoceptor [9]; Log KD, ^3H‐prazosin binding, whole‐cell binding (from Table 1), given as log KD (negative numbers)): 339 µM
2 | NCC(O)c1ccc(O)cc1 (stereo not drawn) [Octopamine] | 1.17 ± 0.06 | >2.8 | >2.8 |  | 4.17 | 81.2 ± 6.8 | No response | 1.23 | >2.91 | 54.9 ± 2.9 | >2.20 | 6.31 | 7.76 | 76.1 ± 6.8 | 18.6 |  | 2.9 ± 1.8 | 2.66 | 0.794 | 57.5 ± 2.1 | EC50 [1, 17]: 1.82 µM; Kd (human α1A‐adrenoceptor [2]; Log KD α1A, ^3H‐prazosin whole cell binding): 363 µM; cAMP accumulation (in presence of forskolin) Fold increase at 100 µM (human α1A‐adrenoceptor [13]): 1.89 ± 0.06 fold; 3H‐prazosin binding log IC50 (bound, printed in Log KD column) ([3]; CHO‐α1D cells, whole‐cell binding, given as IC50 > log value): IC50 > −3; IC50 ([3]; CHO‐α1D cells, printed as IC50> log value): > 1000 µM; cAMP accumulation (in presence of forskolin) Log EC50 [14]: No response; cAMP accumulation % forskolin at 100 µM (human α1A‐adrenoceptor [15]; response at 100 μM ligand, no EC50 obtained): 18.0 ± 1.5%; IC50 (human α1B‐adrenoceptor [9]; printed as IC50> log value): > 1000 µM; ERK1/2‐phosphorylation % PDBu [10]: 14.5 ± 5.9%
3 | CNC[C@H](O)c1cccc(O)c1 [R‐phenylephrine] |  |  |  | 22.4 |  | 84.5 ± 4.5 | No response |  |  | 67.0 ± 3.3 |  | 0.0631 |  | 77.0 ± 4.8 | 0.676 | 15.8 ± 2.9 |  |  |  | 58.3 ± 2.9 | EC50 [1, 17]: 0.17 µM; cAMP accumulation % forskolin (human α1B‐adrenoceptor [16]): 86.2 ± 5.3%; cAMP accumulation % forskolin (human α1A‐adrenoceptor [15]; % of 10 µM forskolin response): 132.5 ± 4.5%
